According to patent publication US20200077648A1, “PHENOXYPHENYLAMIDINES AND THE USE THEREOF AS FUNGICIDES” (priority 2016, published 2020):

Assay: Log P measurement by HPLC on reversed phase columns (EEC directive 79/831 Annex V.A8; methods [a], [b], [c])
Format: physicochemical
Settings: method [a]: LC-UV, acidic range, 0.1% formic acid in water and acetonitrile as eluent
Experimental: If more than one Log P value is available within the same method, all the values are given and separated by “+”. […] Lambda-max-values were determined using UV-spectra from 200 nm to 400 nm and the peak values of the chromatographic signals.
In the case of `CCN(C)C=Nc1cc(C)c(Oc2cccc(Cl)c2)cc1C` [Example 1], the LogP is reported as 1.86^[a]. In the case of `CCN(C)C=Nc1cc(C)c(Oc2cccc(Cl)c2F)cc1Cl` [Example 3], the LogP is reported as 1.88^[a]. With `Cc1cc(Oc2ccc(F)cc2)c(C)cc1N=CN(C)C(C)C` [Example 4] the LogP was 1.66^[a];. In the case of `CCN(C)C=Nc1cc(C)c(Oc2ccccc2C)cc1C(F)F` [Example 6], the LogP is reported as 1.72^[a]. In the case of `CCc1ccccc1Oc1cc(C)c(N=CN(C)CC)cc1C` [Example 10], the LogP is reported as 2.06^[a]. In the case of `CCN(C)C=Nc1cc(C)c(Oc2ccccc2C2CC2)cc1C` [Example 11], the LogP is reported as 2.09^[a]. In the case of `CCN(C)C=Nc1cc(C)c(Oc2ccccc2)cc1C#N` [Example 13], the LogP is reported as 1.58^[a];. For `CCN(C)C=Nc1cc(C)c(Oc2ccccc2F)cc1OC` [Example 14], the LogP was 1.46^[a];. With `CCN(C)C=Nc1cc(C)c(Oc2ccccc2C)cc1OC` [Example 15] the LogP was 1.60^[a];. For `CCN(C)C=Nc1cc(C)c(Oc2ccccc2C#N)cc1Cl` [Example 17], the LogP was 1.21^[a]. With `CCN(C)C=Nc1cc(Cl)c(Oc2ccccc2C#N)cc1C` [Example 18] the LogP was 1.21^[a]. With `CCN(C)C=Nc1cc(C)c(Oc2ccccc2)cc1C(F)(F)F` [Example 22] the LogP was 1.89^[a]. With `CCN(C)C=Nc1cc(C)c(Oc2ccccc2Cl)cc1C(F)(F)F` [Example 23] the LogP was 2.08^[a]. With `CCN(C)C=Nc1cc(C)c(Oc2ccccc2F)cc1C(F)(F)F` [Example 24] the LogP was 1.89^[a]. With `CCN(C)C=Nc1cc(C)c(Oc2ccccc2Br)cc1C(F)(F)F` [Example 25] the LogP was 2.17^[a]. For `CCN(C)C=Nc1cc(C)c(Oc2ccccc2I)cc1C(F)(F)F` [Example 26], the LogP was 2.28^[a]. With `CCN(C)C=Nc1cc(C)c(Oc2ccccc2C#N)cc1C(F)(F)F` [Example 27] the LogP was 1.63^[a]. In the case of `CCN(C)C=Nc1cc(C)c(Oc2ccccc2C)cc1C(F)(F)F` [Example 28], the LogP is reported as 1.96^[a]. For `CCN(C)C=Nc1cc(C)c(Oc2ccccc2Br)cc1Cl` [Example 29], the LogP was 1.80^[a];. In the case of `Cc1cc(Oc2ccccc2)c(I)cc1N=CN(C)C` [Example 32], the LogP is reported as 1.61^[a];. With `CCN(C)C=Nc1cc(C(F)(F)F)c(Oc2ccccc2C)cc1C` [Example 33] the LogP was 1.96^[a]. With `CCc1cc(Oc2ccccc2)c(Br)cc1N=CN(C)C` [Example 35] the LogP was 1.37^[a];. In the case of `Cc1cc(N=CN(C)C)c(Cl)cc1Oc1ccccc1Br` [Example 37], the LogP is reported as 1.55^[a];. For `CCN(C)C=Nc1cc(C)c(Oc2ccccc2C#N)cc1C(F)F` [Example 38], the LogP was 1.55^[a]. For `CCN(C)C=Nc1cc(C)c(Oc2ccccc2Cl)cc1C(F)F` [Example 39], the LogP was 1.88^[a]. With `CCN(C)C=Nc1cc(C)c(Oc2ccccc2Br)cc1C(F)F` [Example 40] the LogP was 1.94^[a]. For `CCN(C)C=Nc1cc(C)c(Oc2ccccc2I)cc1C(F)F` [Example 41], the LogP was 1.90^[a]. For `CCN(C)C=Nc1cc(Br)c(Oc2ccccc2C)cc1C` [Example 43], the LogP was 1.72^[a]. For `CCN(C)C=Nc1cc(Br)c(Oc2ccccc2Cl)cc1C` [Example 45], the LogP was 1.79^[a]. For `CCN(C)C=Nc1cc(Br)c(Oc2ccccc2Br)cc1C` [Example 46], the LogP was 1.84^[a]. In the case of `CCN(C)C=Nc1cc(Br)c(Oc2ccccc2I)cc1C` [Example 47], the LogP is reported as 1.92^[a]. For `CCN(C)C=Nc1cc(C)c(Oc2cccc(Cl)c2)cc1Cl` [Example 49], the LogP was 1.84^[a]. With `CCN(C)C=Nc1cc(Cl)c(Oc2cccc(Cl)c2F)cc1C` [Example 50] the LogP was 1.83^[a]. With `CCN(C)C=Nc1cc(C)c(Oc2ccccc2)cc1C1CC1` [Example 51] the LogP was 1.75^[a]. For `CCN(C)C=Nc1cc(C2CC2)c(Oc2ccccc2F)cc1C` [Example 52], the LogP was 1.75^[a]. With `CCN(C)C=Nc1cc(C)c(Oc2cccc(Cl)c2F)cc1C` [Example 53] the LogP was 1.89^[a]. With `CCN(C)C=Nc1cc(C(F)F)c(Oc2ccccc2F)cc1C` [Example 54] the LogP was 1.49^[a]. With `CCN(C)C=Nc1cc(I)c(Oc2ccccc2Br)cc1C` [Example 57] the LogP was 1.75^[a]. With `CCN(C)C=Nc1cc(I)c(Oc2ccccc2Cl)cc1C` [Example 58] the LogP was 1.72^[a]. For `CCN(C)C=Nc1cc(I)c(Oc2ccccc2C)cc1C` [Example 59], the LogP was 1.78^[a]. In the case of `Cc1cc(N=CN(C)C)c(Cl)cc1Oc1ccccc1F` [Example 60], the LogP is reported as 1.37^[a]. With `Cc1cc(N=CN(C)C)c(Br)cc1Oc1ccccc1F` [Example 61] the LogP was 1.39^[a]. With `Cc1cc(N=CN(C)C(C)C)c(Cl)cc1Oc1ccccc1F` [Example 62] the LogP was 1.61^[a]. For `Cc1cc(N=CN(C)C(C)C)c(Br)cc1Oc1ccccc1F` [Example 63], the LogP was 1.63^[a]. In the case of `Cc1cc(Oc2ccccc2F)c(C)cc1N=CN(C)C` [Example 66], the LogP is reported as 1.43^[a].

Same assay, conditions: method [a]: LC-UV, acidic range, 0.1% formic acid in water and acetonitrile as eluent (linear gradient 10% to 95% acetonitrile)
For `Cc1cc(Oc2ccccc2Br)c(C)cc1N=CN(C)C` [Example 68], the LogP was 1.66^[a]. For `Cc1cc(Oc2ccccc2Br)c(C)cc1N=CN(C)C(C)C` [Example 69], the LogP was 1.97^[a]. In the case of `Cc1cc(Oc2ccccc2C#N)c(C)cc1N=CN(C)C` [Example 70], the LogP is reported as 1.25^[a]. In the case of `CCN(C)C=Nc1cc(C)c(Oc2ccccc2)cc1C#N` [Example 72], the LogP is reported as 1.53^[a]. In the case of `CCN(C)C=Nc1cc(C)c(Oc2ccccc2C2CC2)cc1Cl` [Example 74], the LogP is reported as 1.78^[a]. For `CCN(C)C=Nc1cc(C)c(Oc2ccccc2S(C)(=O)=O)cc1Cl` [Example 75], the LogP was 0.91^[a]. With `CCN(C)C=Nc1cc(C)c(Oc2ccccc2N(C)C)cc1Cl` [Example 76] the LogP was 0.78^[a]. In the case of `CCN(C)C=Nc1cc(C)c(Oc2ccccc2C(=O)OC)cc1Cl` [Example 77], the LogP is reported as 1.35^[a]. With `CCN(C)C=Nc1cc(C)c(Oc2ccccc2C(F)F)cc1Cl` [Example 78] the LogP was 1.55^[a]. In the case of `CCN(C)C=Nc1cc(C)c(Oc2cccc(F)c2Br)cc1Cl` [Example 79], the LogP is reported as 1.66^[a]. With `CCN(C)C=Nc1cc(C)c(Oc2cccc(F)c2C#N)cc1C` [Example 80] the LogP was 1.32^[a]. For `CCN(C)C=Nc1cc(C)c(Oc2ccccc2F)cc1N(C)C` [Example 81], the LogP was 1.58^[a]. For `CCN(C)C=Nc1cc(C)c(Oc2ccccc2)cc1N(C)C` [Example 82], the LogP was 1.58^[a]. With `CCN(C)C=Nc1cc(C)c(Oc2ccccc2Br)cc1C` [Example 83] the LogP was 1.63^[a]. For `CCN(C)C=Nc1cc(C)c(Oc2cc(F)ccc2C#N)cc1C` [Example 84], the LogP was 1.29^[a]. In the case of `CCN(C)C=Nc1cc(C)c(Oc2ccccc2N(C)C)cc1C` [Example 85], the LogP is reported as 0.55^[a]. In the case of `CCN(C)C=Nc1cc(C)c(Oc2cccc(F)c2C)cc1C` [Example 86], the LogP is reported as 1.72^[a]. For `CCN(C)C=Nc1cc(C)c(Oc2ccccc2)cc1C(=O)N(C)C` [Example 87], the LogP was 1.21^[a]. In the case of `C=Cc1ccccc1Oc1cc(Cl)c(N=CN(C)CC)cc1C` [Example 89], the LogP is reported as 1.69^[a]. For `CCN(C)C=Nc1cc(C)c(Oc2ccccc2C(F)(F)F)cc1Cl` [Example 90], the LogP was 1.81^[a].

Same assay, conditions: method [b]: LC-UV, neutral range, 0.001 molar ammonium acetate solution in water and acetonitrile as eluent
With `Cc1cc(Oc2ccc(F)cc2)c(C)cc1N=CN(C)C(C)C` [Example 4] the LogP was 5.63^[b]. With `CCN(C)C=Nc1cc(C)c(Oc2ccccc2)cc1C#N` [Example 13] the LogP was 3.78^[b]. In the case of `CCN(C)C=Nc1cc(C)c(Oc2ccccc2F)cc1OC` [Example 14], the LogP is reported as 4.33^[b]. With `CCN(C)C=Nc1cc(C)c(Oc2ccccc2C)cc1OC` [Example 15] the LogP was 5.53^[b]. With `CCN(C)C=Nc1cc(C)c(Oc2ccccc2Br)cc1Cl` [Example 29] the LogP was 4.93^[b]. With `Cc1cc(Oc2ccccc2)c(I)cc1N=CN(C)C` [Example 32] the LogP was 4.51^[b]. For `CCc1cc(Oc2ccccc2)c(Br)cc1N=CN(C)C` [Example 35], the LogP was 4.29^[b]. In the case of `Cc1cc(N=CN(C)C)c(Cl)cc1Oc1ccccc1Br` [Example 37], the LogP is reported as 4.47^[b].

Same assay, conditions: reversed phase HPLC column; method [a]: LC-UV, acidic range, 0.1% formic acid in water and acetonitrile as eluent
`CCN(C)C=Nc1cc(C)c(Oc2ccccc2F)cc1C1CC1` [Example 34, N′-[2-cyclopropyl-4-(2-fluorophenoxy)-5-methyl-phenyl]-N-ethyl-N-methyl-formamidine] showed a chromatographic logP of 1.69.
